From patent US9822118B2, “Bicyclic heteroaryl urea, thiourea, guanidine and cyanoguanidine compounds as TrkA kinase inhibitors” (Array BioPharma Inc., priority 2012, dated 2017)

Molecular target: T1, recombinant human TrkA (Homo sapiens, UniProt P04629)
T1 construct: 6HIS tagged cytoplasmic domain from Invitrogen, Catalog No. PV3144; purchased Invitrogen PV3144
Test: TrkA LanthaScreen Eu Kinase Binding Assay
Conditions: averaged IC50; TR-FRET binding assay, 60 min at 22° C.; read-out: TrkA Enzyme IC50
Method: TrkA binding activity was determined in a TrkA LanthaScreen™ Eu Kinase Binding Assay. 5 nM His-tagged recombinant human TrkA (6HIS tagged cytoplasmic domain from Invitrogen, Catalog No. PV3144) was incubated with 4 nM Alexa-Fluor® Tracer 236 (Invitrogen Cat. No. PV5592), 2 nM biotinylated anti-His (Invitrogen Cat. No. PV6090), and 2 nM europium-labeled Streptavidin (Invitrogen Cat. No. PV5899), in buffer (25 mM MOPS, pH 7.5, 5 mM MgCl2, 0.005% Triton X-100). Three fold serial dilutions of compounds of the invention in DMSO were added to a final percentage of 2% DMSO. After 60-minute incubation at 22° C., the reaction was measured using the EnVision multimode plate reader (PerkinElmer) via TR-FRET dual wavelength detection at […]. The percent of control was calculated using a ratiometric emission factor. The IC50 values were determined by fitting a four parameter model to the percent of control data.
Table A provides averaged IC50 values for compounds of the invention when tested in the assay of Example A, where A represents an averaged IC50 value <100 nM; and B represents an averaged IC50 value from 100 to 1,000 nM.

T1 sequence (P04629 440-796 limits assumed): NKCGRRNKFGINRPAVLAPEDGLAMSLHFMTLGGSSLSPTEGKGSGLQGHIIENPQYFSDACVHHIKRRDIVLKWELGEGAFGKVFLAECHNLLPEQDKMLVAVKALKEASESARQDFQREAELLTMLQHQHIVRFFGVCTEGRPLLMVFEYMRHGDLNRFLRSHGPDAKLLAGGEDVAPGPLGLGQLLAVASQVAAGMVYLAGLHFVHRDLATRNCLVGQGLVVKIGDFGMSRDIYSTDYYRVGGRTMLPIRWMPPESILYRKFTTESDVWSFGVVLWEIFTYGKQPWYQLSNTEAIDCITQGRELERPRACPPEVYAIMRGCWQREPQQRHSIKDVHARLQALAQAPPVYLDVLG

IC50 [nM] | Compound
< 100 | Cc1c(OC[C@@H](C)O)nn(-c2ccccc2)c1NC(=O)Nc1c(-c2ccccc2)nc2c(C(F)(F)F)cccn12 [Example 27, (R)-1-(3-(2-hydroxypropoxy)-4-methyl-1-phenyl-1H-pyrazol-5-yl)-3-(2-phenyl-8-(trifluoromethyl)imidazo[1,2-a]pyridin-3-yl)urea]
< 100 | CCOc1nn(-c2ccccc2)c(NC(=O)Nc2c(-c3ccccc3)nc3c(C)cccn23)c1C [Example 7, 1-(3-ethoxy-4-methyl-1-phenyl-1H-pyrazol-5-yl)-3-(8-methyl-2-phenylimidazo[1,2-a]pyridin-3-yl)urea]
< 100 | CCOc1nn(-c2ccccc2)c(NC(=O)Nc2c(-c3ccccc3)nc3c(C(F)(F)F)cccn23)c1C [Example 3, 1-(3-ethoxy-4-methyl-1-phenyl-1H-pyrazol-5-yl)-3-(2-phenyl-8-(trifluoromethyl)imidazo[1,2-a]pyridin-3-yl)urea]
100 to 1000 | CCOc1nn(-c2ccccc2)c(NC(=O)Nc2c(-c3ccccc3)nc3c(F)cccn23)c1C [Example 6, 1-(3-ethoxy-4-methyl-1-phenyl-1H-pyrazol-5-yl)-3-(8-fluoro-2-phenylimidazo[1,2-a]pyridin-3-yl)urea]
< 100 | CCOc1nn(-c2ccccc2)c(NC(=O)Nc2c(-c3ccccc3)nc3c(Br)cccn23)c1C [Example 15, 1-(8-bromo-2-phenylimidazo[1,2-a]pyridin-3-yl)-3-(3-ethoxy-4-methyl-1-phenyl-1H-pyrazol-5-yl)urea]
< 100 | Cc1c(OCC(CO)CO)nn(-c2ccccc2)c1NC(=O)Nc1c(-c2ccccc2)nc2c(C(F)(F)F)cccn12 [Example 25, 1-(3-(3-hydroxy-2-(hydroxymethyl)propoxy)-4-methyl-1-phenyl-1H-pyrazol-5-yl)-3-(2-phenyl-8-(trifluoromethyl)imidazo[1,2-a]pyridin-3-yl)urea]
< 100 | Cc1c(OCC(C)(C)O)nn(-c2ccccc2)c1NC(=O)Nc1c(-c2ccccc2)nc2c(C(F)(F)F)cccn12 [Example 26, 1-(3-(2-hydroxy-2-methylpropoxy)-4-methyl-1-phenyl-1H-pyrazol-5-yl)-3-(2-phenyl-8-(trifluoromethyl)imidazo[1,2-a]pyridin-3-yl)urea]
< 100 | COc1nn(-c2ccccc2)c(NC(=O)Nc2c(-c3ccccc3)nc3c(C(F)(F)F)cccn23)c1C [Example 22, 1-(3-methoxy-4-methyl-1-phenyl-1H-pyrazol-5-yl)-3-(2-phenyl-8-(trifluoromethyl)imidazo[1,2-a]pyridin-3-yl)urea]

Further lines, the molecule ahead of its results:

Compound | IC50 [nM]
O=C(Nc1c(-c2ccccc2)nn2ccccc12)Nc1c2c(nn1-c1ccccc1)CCC2 [Example 38, 1-(2-phenyl-2,4,5,6-tetrahydrocyclopenta[c]pyrazol-3-yl)-3-(2-phenylpyrazolopyridin-3-yl)urea] | < 100
Cc1nn(-c2ccccc2)c(NC(=O)Nc2c(-c3ccccc3)nc3c(C)nccn23)c1C [Example 8, 1-(3,4-dimethyl-1-phenyl-1H-pyrazol-5-yl)-3-(8-methyl-2-phenylimidazo[1,2-a]pyrazin-3-yl)urea] | < 100
O=C(Nc1c2c(nn1-c1ccccc1)CCC2)Nc1c(-c2ccccc2)nc2c(C(F)(F)F)cccn12 [Example 13, 1-(2-phenyl-2,4,5,6-tetrahydrocyclopenta[c]pyrazol-3-yl)-3-(2-phenyl-8-(trifluoromethyl)imidazo[1,2-a]pyridin-3-yl)urea] | < 100
Cc1cccn2c(NC(=O)Nc3c4c(nn3-c3ccccc3)CCC4)c(-c3ccccc3)nc12 [Example 12, 1-(8-methyl-2-phenylimidazo[1,2-a]pyridin-3-yl)-3-(2-phenyl-2,4,5,6-tetrahydrocyclopenta[c]pyrazol-3-yl)urea] | < 100
Cc1c(-c2cnn(C)c2)nn(-c2ccccc2)c1NC(=O)Nc1c(-c2ccccc2)nc2c(C(F)(F)F)cccn12 [Example 30, 1-(1′,4-dimethyl-1-phenyl-1H,1′H-[3,4′-bipyrazol]-5-yl)-3-(2-phenyl-8-(trifluoromethyl)imidazo[1,2-a]pyridin-3-yl)urea] | < 100
CCOc1nn(-c2ccccc2)c(NC(=O)Nc2c(-c3ccc(OC)nc3)nc3c(C)cccn23)c1C [Example 16, 1-(3-ethoxy-4-methyl-1-phenyl-1H-pyrazol-5-yl)-3-(2-(6-methoxypyridin-3-yl)-8-methylimidazo[1,2-a]pyridin-3-yl)urea] | 100 to 1000
Cc1cccn2c(NC(=O)Nc3c4c(nn3-c3ccccc3)CS(=O)(=O)C4)c(-c3ccccc3)nc12 [Example 17, 1-(5,5-dioxido-2-phenyl-4,6-dihydro-2H-thieno[3,4-c]pyrazol-3-yl)-3-(8-methyl-2-phenylimidazo[1,2-a]pyridin-3-yl)urea] | < 100
O=C(Nc1c2c(nn1-c1ccccc1)CCC2)Nc1c2ccccc2nn1-c1ccccc1 [Example 37, 1-(2-phenyl-2,4,5,6-tetrahydrocyclopenta[c]pyrazol-3-yl)-3-(2-phenyl-2H-indazol-3-yl)urea] | 100 to 1000
